Test results from PubChem BioAssay AID1963836 (Molecular Pharmacology Branch, DTP, NCI, 2024).
pIC50: −log10 of the molar value.

Test system: 857933-349-R-J2-PDC complex spheroid viability
Assay: Anticancer human tumor 857933-349-R-J2-PDC patient-derived colon adenocarcinoma cell line growth inhibition [POLQ]
Details: for pIC50: curve of first compound; for viability, T/C: stronger effect = lower value
Summary of the method: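 Three-cell-type spheroids modelling solid tumor plus stroma served as the readout system; POL inhibitors were tested individually and in combination, concentration ranges set by clinical Cmax where known.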

[1] = second compound 0.0316 µM, first compound 0.0316 µM
[2] = second compound 0.0316 µM, first compound 0.1 µM
[3] = second compound 0.0316 µM, first compound 0.316 µM
[4] = second compound 0.0316 µM, first compound 1 µM
[5] = second compound 0.0316 µM, first compound 3.16 µM
[6] = second compound 0.0316 µM, first compound 10 µM
[7] = second compound 0.1 µM, first compound 0.0316 µM
[8] = second compound 0.1 µM, first compound 0.1 µM
[9] = second compound 0.1 µM, first compound 0.316 µM
[10] = second compound 0.1 µM, first compound 1 µM
[11] = second compound 0.1 µM, first compound 3.16 µM
[12] = second compound 0.1 µM, first compound 10 µM
[13] = second compound 0.316 µM, first compound 0.0316 µM
[14] = second compound 0.316 µM, first compound 0.1 µM
[15] = second compound 0.316 µM, first compound 0.316 µM
[16] = second compound 0.316 µM, first compound 1 µM
[17] = second compound 0.316 µM, first compound 3.16 µM
[18] = second compound 0.316 µM, first compound 10 µM
[19] = second compound 1 µM, first compound 0.0316 µM
[20] = second compound 1 µM, first compound 0.1 µM
[21] = second compound 1 µM, first compound 0.316 µM
[22] = second compound 1 µM, first compound 1 µM
[23] = second compound 1 µM, first compound 3.16 µM
[24] = second compound 1 µM, first compound 10 µM
[25] = second compound 3.16 µM, first compound 0.0316 µM
[26] = second compound 3.16 µM, first compound 0.1 µM
[27] = second compound 3.16 µM, first compound 0.316 µM
[28] = second compound 3.16 µM, first compound 1 µM
[29] = second compound 3.16 µM, first compound 3.16 µM
[30] = second compound 3.16 µM, first compound 10 µM
[31] = second compound 10 µM, first compound 0.0316 µM
[32] = second compound 10 µM, first compound 0.1 µM
[33] = second compound 10 µM, first compound 0.316 µM
[34] = second compound 10 µM, first compound 1 µM
[35] = second compound 10 µM, first compound 3.16 µM
[36] = second compound 10 µM, first compound 10 µM
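Further: spheroids exposed to compounds for seven days before readout.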

Work on `CC(C)n1c(=O)n(C)c2cnc3cc(F)c(-c4ccc(OCCCN5CCCCC5)nc4)cc3c21` + Nc1ccc(C#CCN(C(=O)Cc2ncc(C(F)(F)F)cc2C(F)(F)F)c2ccc(F)cc2)nn1 yielded a pIC50 (second compound 0.0316 µM) of less than 5.00, a pIC50 (second compound 0.1 µM) of less than 5.00 and a pIC50 (second compound 0.316 µM) of less than 5.00. It also gave a pIC50 (second compound 1 µM) of less than 5.00, a pIC50 (second compound 3.16 µM) of less than 5.00 and a pIC50 (second compound 10 µM) of less than 5.00. For the same compound, the viability, T/C [1] was 88.3%, the viability, T/C [2] was 89% and the viability, T/C [3] was 103%. The viability, T/C [4] was 106%, the viability, T/C [5] was 93.7% and the viability, T/C [6] was 98.8%. It also gave a viability, T/C [7] of 99.5%, a viability, T/C [8] of 109% and a viability, T/C [9] of 111%. For the same compound, the viability, T/C [10] was 116%, the viability, T/C [11] was 118% and the viability, T/C [12] was 100%. The viability, T/C [13] was 108%, the viability, T/C [14] was 106% and the viability, T/C [15] was 103%. For the same compound, the viability, T/C [16] was 98.7%, the viability, T/C [17] was 105% and the viability, T/C [18] was 98%. It also gave a viability, T/C [19] of 107%, a viability, T/C [20] of 95.9% and a viability, T/C [21] of 107%. For the same compound, the viability, T/C [22] was 114%, the viability, T/C [23] was 95.2% and the viability, T/C [24] was 84.7%. The viability, T/C [25] was 91.7%, the viability, T/C [26] was 99.9% and the viability, T/C [27] was 103%. The viability, T/C [28] was 115%, the viability, T/C [29] was 111% and the viability, T/C [30] was 91.5%. For the same compound, the viability, T/C [31] was 86.4%, the viability, T/C [32] was 102% and the viability, T/C [33] was 114%. For the same compound, the viability, T/C [34] was 89.3%, the viability, T/C [35] was 98.1% and the viability, T/C [36] was 92.6%.

`CC1COCCN1c1cc(-c2ccnn2C)c2ccnc(-c3ccn[nH]3)c2n1` (stereo not drawn) + Nc1ccc(C#CCN(C(=O)Cc2ncc(C(F)(F)F)cc2C(F)(F)F)c2ccc(F)cc2)nn1 was tested, and the pIC50 (second compound 0.0316 µM) was 6.09, the pIC50 (second compound 0.1 µM) was 6.31 and the pIC50 (second compound 0.316 µM) was 6.13. The pIC50 (second compound 1 µM) was 6.35, the pIC50 (second compound 3.16 µM) was 6.57 and the pIC50 (second compound 10 µM) was 6.19. For the same compound, the viability, T/C [1] was 76.4%, the viability, T/C [2] was 65.6% and the viability, T/C [3] was 62.1%. For the same compound, the viability, T/C [4] was 50.3%, the viability, T/C [5] was 32.5% and the viability, T/C [6] was 43.8%. It also gave a viability, T/C [7] of 71.5%, a viability, T/C [8] of 65.3% and a viability, T/C [9] of 53%. For the same compound, the viability, T/C [10] was 47.9%, the viability, T/C [11] was 30.9% and the viability, T/C [12] was 42.8%. For the same compound, the viability, T/C [13] was 81.1%, the viability, T/C [14] was 78.5% and the viability, T/C [15] was 56.2%. For the same compound, the viability, T/C [16] was 51.4%, the viability, T/C [17] was 37.3% and the viability, T/C [18] was 41.3%. For the same compound, the viability, T/C [19] was 74.9%, the viability, T/C [20] was 61.9% and the viability, T/C [21] was 51.5%. It also gave a viability, T/C [22] of 49%, a viability, T/C [23] of 36.9% and a viability, T/C [24] of 45.6%. The viability, T/C [25] was 76.4%, the viability, T/C [26] was 68.2% and the viability, T/C [27] was 47.4%. The viability, T/C [28] was 42.9%, the viability, T/C [29] was 42.8% and the viability, T/C [30] was 46.7%. It also gave a viability, T/C [31] of 78.2%, a viability, T/C [32] of 62.1% and a viability, T/C [33] of 54.8%. It also gave a viability, T/C [34] of 45.3%, a viability, T/C [35] of 47.2% and a viability, T/C [36] of 45.5%.

In the case of `CC1COCCN1c1cc(C2(S(C)(=N)=O)CC2)nc(-c2ccnc3[nH]ccc23)n1` (stereo not drawn) + Nc1ccc(C#CCN(C(=O)Cc2ncc(C(F)(F)F)cc2C(F)(F)F)c2ccc(F)cc2)nn1, the pIC50 (second compound 0.0316 µM) was 5.20, the pIC50 (second compound 0.1 µM) was 5.13 and the pIC50 (second compound 0.316 µM) was 5.16. For the same compound, the pIC50 (second compound 1 µM) was 5.19, the pIC50 (second compound 3.16 µM) was 5.16 and the pIC50 (second compound 10 µM) was less than 5.00. The viability, T/C [1] was 85.9%, the viability, T/C [2] was 110% and the viability, T/C [3] was 107%. The viability, T/C [4] was 81.7%, the viability, T/C [5] was 60.8% and the viability, T/C [6] was 43.2%. It also gave a viability, T/C [7] of 95.3%, a viability, T/C [8] of 104% and a viability, T/C [9] of 88.8%. It also gave a viability, T/C [10] of 79%, a viability, T/C [11] of 63.4% and a viability, T/C [12] of 45.3%. For the same compound, the viability, T/C [13] was 108%, the viability, T/C [14] was 107% and the viability, T/C [15] was 85.4%. For the same compound, the viability, T/C [16] was 83.2%, the viability, T/C [17] was 64.2% and the viability, T/C [18] was 43.2%. For the same compound, the viability, T/C [19] was 100%, the viability, T/C [20] was 102% and the viability, T/C [21] was 90.1%. It also gave a viability, T/C [22] of 74.6%, a viability, T/C [23] of 57.6% and a viability, T/C [24] of 45.4%. For the same compound, the viability, T/C [25] was 96.2%, the viability, T/C [26] was 88.1% and the viability, T/C [27] was 89.3%. The viability, T/C [28] was 84.7%, the viability, T/C [29] was 59.9% and the viability, T/C [30] was 45.4%. For the same compound, the viability, T/C [31] was 96.5%, the viability, T/C [32] was 91.3% and the viability, T/C [33] was 93.5%. For the same compound, the viability, T/C [34] was 71.4%, the viability, T/C [35] was 71.1% and the viability, T/C [36] was 49.9%.

Work on `CCCS(=O)(=O)Nc1ccc(F)c(C(=O)c2c[nH]c3ncc(-c4ccc(Cl)cc4)cc23)c1F` + Nc1ccc(C#CCN(C(=O)Cc2ncc(C(F)(F)F)cc2C(F)(F)F)c2ccc(F)cc2)nn1 yielded a pIC50 (second compound 0.0316 µM) of 5.21, a pIC50 (second compound 0.1 µM) of 5.21 and a pIC50 (second compound 0.316 µM) of 5.22. The pIC50 (second compound 1 µM) was 5.19, the pIC50 (second compound 3.16 µM) was 5.19 and the pIC50 (second compound 10 µM) was 5.19. For the same compound, the viability, T/C [1] was 103%, the viability, T/C [2] was 102% and the viability, T/C [3] was 102%. For the same compound, the viability, T/C [4] was 102%, the viability, T/C [5] was 97.5% and the viability, T/C [6] was 15.6%. For the same compound, the viability, T/C [7] was 93.5%, the viability, T/C [8] was 112% and the viability, T/C [9] was 88.6%. The viability, T/C [10] was 104%, the viability, T/C [11] was 102% and the viability, T/C [12] was 14.9%. It also gave a viability, T/C [13] of 103%, a viability, T/C [14] of 89% and a viability, T/C [15] of 99.6%. It also gave a viability, T/C [16] of 91%, a viability, T/C [17] of 98.3% and a viability, T/C [18] of 12.9%. For the same compound, the viability, T/C [19] was 116%, the viability, T/C [20] was 93% and the viability, T/C [21] was 82.1%. The viability, T/C [22] was 106%, the viability, T/C [23] was 109% and the viability, T/C [24] was 17.9%. It also gave a viability, T/C [25] of 77.1%, a viability, T/C [26] of 97.2% and a viability, T/C [27] of 99.3%. The viability, T/C [28] was 96.8%, the viability, T/C [29] was 99.6% and the viability, T/C [30] was 23.3%. It also gave a viability, T/C [31] of 97.7%, a viability, T/C [32] of 90.7% and a viability, T/C [33] of 93.4%. It also gave a viability, T/C [34] of 86.5%, a viability, T/C [35] of 92% and a viability, T/C [36] of 24.6%.
